Experimental findings from patent US7939542B2, “Cinnamaldehyde derivatives having improved solubility in water, a method for preparing the same and a pharmaceutical composition comprising the same” (Korea Research Institute of Bioscience and Biotechnology, priority 2008, dated 2011) are described below.

The nature of data set [1]: Solubility (physicochemical properties). To be noted: for Solubility: Insoluble: solvents in which the compound is insoluble; for Solubility: Soluble: solvents in which the compound is soluble.
In data set [2] the test system is human colon carcinoma SW620 cells. As to the kind of experiment: Cell cycle analysis by flow cytometry (PI staining). The format is cell-based. To be noted: 48 hours. As to the method: In practice, when human colon carcinoma SW620 cells are dosed with 10 to 20 μM of the compound of Chemical Formula 1, the compound induces a cell cycle arrest in the G2/M phase, leading to cell growth inhibition. The inhibition of the growth of cancer cells may be tested as follows. In brief, human colon carcinoma SW620 cells were dosed with the compound dissolved in DMSO. After 48 hrs, nuclear DNA was stained with propidium iodide. The stained cells were analyzed to determine the cell cycle using a FACSCalibur cytometer (Becton-Dickinson, San Jose, Calif., USA). The proportions of cells in G1, S and G2/M phases were determined using a Becton-Dickinson Modifit cell-cycle analysis program and expressed as percentages.
For flow cytometric analysis, human colon carcinoma SW620 cells were plated in T25 flasks (containing 7.5 ml of culture medium) and cultured in RPMI 1640 and DMEM media, each of which was supplemented with 10% FBS, in an incubator at 37° C. for 12 hrs. Then, as a control, DMSO was added to the culture medium at a final concentration of 0.1% (7.5 μl). As compound treatment groups, 7.5 μl of each of compounds dissolved in DMSO at various concentrations was added to the culture medium. After 48 hours, control (DMSO) and compound-treated cells were harvested and subjected to flow cytometric analysis.
After the culture media were removed from flasks, cells were trypsinized and centrifuged at 300 g for 5 min. The collected cells were washed with phosphate buffer twice to remove culture media. The cells were then fixed in 3 ml of 70% ethanol at −20° C. for 12 hrs. The fixed cells were centrifuged at 300 g for 5 min and washed with cold PBS twice to remove remaining ethanol. The washed cells were resuspended in 500 μl of PBS, and treated with 50 μl of 100 μg/ml RNase A at 37° C. for 30 min. Then, cells were incubated in 10 μl of 1 mg/ml propidium iodide (PI) in PBS for DNA staining. The cell cycles of 20,000 stained cells were analyzed using a FACSCalibur cytometer (Becton-Dickinson, San Jose, Calif., USA). Cell cycle fractions were quantified using a Becton-Dickinson Modifit cell-cycle analysis program, and the distribution of cells in G1, S and G2/M phases was expressed as percentages.
(In general: A flow cytometer gives signals particle by particle.)

Data set [3] relates to human colon carcinoma HT-29 cells. Description: Anticancer activity upon oral administration to tumor-xenografted nude mice. The format is in vivo. The conditions noted are these: HT-29 xenograft, 10 mg/kg orally once every day, Day 18, p<0.001. As to the method: Tumor diameter was measured in three planes with a vernier caliper. Tumor volume (V) was calculated using the following Equation 1. Tumor volume=(Length×Width×Height)/2 [Equation 1]
On Day 18 of tumor transplantation, animals were sacrificed, and tumors were excised and weighed.

A short description of data set [4]: Body weight change in tumor-xenografted nude mice. To be noted: positive control 2 mg/kg, 18 days, p<0.001.
Experimental: Nude mice were divided into three groups: a compound administration group, a vehicle control group and a positive control group. A 0.3-ml aliquot of human colon carcinoma HT-29 cells (3×10^7 cells/ml) was injected subcutaneously into the right axilla between the scapular region and the chest wall of mice. From the day (Day 1) after tumor transplantation to the day before sacrifice, the compound of Chemical Formula 6 was administered orally at a dose of 10 mg/kg once every day.
In order to investigate the clinical signs of drug toxicity, animals were monitored for change in body weight about three times a week during the test period.

Molecules are shown by their SMILES.

As to `COCC(=O)Oc1ccccc1/C=C/C=O` [Compound of Formula 2], in data set [1], the “Solubility: Insoluble” value was “Hexane”; the “Solubility: Soluble” value is listed as “Alcohol, DMSO”; the Water solubility came to 320 µM. Moreover, in data set [2] (SW620, 20 μM), the “Cell distribution (%) G0-G1” value was 33.00%, the “Cell distribution (%) G2-M” value turned out to be 49.94% and the “Cell distribution (%) S” value was found to be 17.06%.

With `O=C/C=C/c1ccccc1OCc1ccncc1` [Compound of Formula 3], in data set [1], the “Solubility: Insoluble” value is recorded as “Hexane, H2O” and the “Solubility: Soluble” value is “Alcohol, DMSO”. Further, in data set [2] (SW620, 20 μM), the “Cell distribution (%) G0-G1” value is given as 39.80%, the “Cell distribution (%) G2-M” value is on record as 33.63% and the “Cell distribution (%) S” value amounted to 26.57%.

For `CN1CCN(C(=O)Oc2ccccc2/C=C/C=O)CC1` [Compound of Formula 4], in data set [1], the “Solubility: Insoluble” value is recorded as “Hexane, H2O” and the “Solubility: Soluble” value is recorded as “Alcohol, DMSO”. Further, in data set [2] (SW620, 30 μM), the “Cell distribution (%) G0-G1” value was 37.50%, the “Cell distribution (%) G2-M” value amounted to 45.49% and the “Cell distribution (%) S” value turned out to be 17.01%.

On to `O=C/C=C/c1ccccc1OS(=O)(=O)c1ccccc1` [Compound of Formula 5], for which, in data set [1], the “Solubility: Insoluble” value is reported as “Hexane”; the “Solubility: Soluble” value is recorded as “Alcohol, DMSO”; the Water solubility is 600 µM. In data set [2] (SW620, 20 μM), the “Cell distribution (%) G0-G1” value amounted to 36.01%, the “Cell distribution (%) G2-M” value was 45.94% and the “Cell distribution (%) S” value was 18.05%.

Consider `Cl.O=C/C=C/c1ccccc1OCc1ccncc1` [Compound of Formula 6], for which, in data set [1], the “Solubility: Insoluble” value is on record as “Hexane, acetone” and the “Solubility: Soluble” value is listed as “Alcohol, H2O”. Moreover, in data set [2] (SW620, 20 μM), the “Cell distribution (%) G0-G1” value was 39.80%, the “Cell distribution (%) G2-M” value came to 33.63% and the “Cell distribution (%) S” value is recorded as 26.57%. Also, in data set [2] (SW620, 40 μM), the “Cell distribution (%) G0-G1” value is 43.85%, the “Cell distribution (%) G2-M” value is 41.31% and the “Cell distribution (%) S” value is recorded as 14.84%. Besides, the “tumor growth inhibitory effect” value in data set [3] is 30.7%.

As for `CN1CCN(C(=O)Oc2ccccc2/C=C/C=O)CC1.Cl` [Compound of Formula 7], in data set [1], the “Solubility: Insoluble” value is “Hexane, acetone” and the “Solubility: Soluble” value is “Alcohol, H2O”. Also, in data set [2] (SW620, 30 μM), the “Cell distribution (%) G0-G1” value turned out to be 35.11%, the “Cell distribution (%) G2-M” value is reported as 47.83% and the “Cell distribution (%) S” value came out at 17.06%.

Turning to `COc1cccc2c1C(=O)c1c(O)c3c(c(O)c1C2=O)C[C@@](O)(C(=O)CO)C[C@@H]3O[C@H]1C[C@H](N)[C@H](O)[C@H](C)O1` [adriamycin], the weight loss in data set [4] came to 10.3%.
